Assay results reported in patent US9040523B2, “Antifungal 5,6-dihydro-4H-pyrrolo[1,2-α][1,4]-benzodiazepines and 6H-pyrrolo[1,2-α][1,4]benzodiazepines substituted with benzene derivatives” (JANSSEN PHARMACEUTICA NV, priority 2010, dated 2015).
Each block holds one compound with its values, some of them ahead of it.

Experiments:
CYP2C9 = CYP2C9 (Homo sapiens, UniProt P11712); experiment: Human liver microsomal cytochrome P450 cocktail inhibition assay, Protocol C; conditions: human, liver microsomes, pH 7.4, probe tolbutamide (100 microM), 2C9 Tolbut pIC50, human liver microsomes 0.2 mg/ml
Sequence of CYP2C9 (P11712 whole entry): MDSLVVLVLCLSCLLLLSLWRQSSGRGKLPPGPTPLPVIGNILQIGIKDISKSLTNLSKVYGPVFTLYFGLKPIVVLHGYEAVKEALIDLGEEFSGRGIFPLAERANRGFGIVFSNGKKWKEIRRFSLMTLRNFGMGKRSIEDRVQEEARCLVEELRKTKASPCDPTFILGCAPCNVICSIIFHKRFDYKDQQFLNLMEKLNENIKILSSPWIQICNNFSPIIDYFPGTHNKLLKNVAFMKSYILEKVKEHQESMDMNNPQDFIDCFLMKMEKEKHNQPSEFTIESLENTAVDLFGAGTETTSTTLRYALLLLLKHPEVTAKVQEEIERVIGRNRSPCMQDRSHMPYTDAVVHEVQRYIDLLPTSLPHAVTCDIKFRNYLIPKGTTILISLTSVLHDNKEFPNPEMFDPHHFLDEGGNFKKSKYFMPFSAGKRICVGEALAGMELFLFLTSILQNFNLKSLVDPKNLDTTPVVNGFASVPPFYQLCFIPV

Cytochrome P450 1A2 = target: T1, Cytochrome P450 1A2 (Homo sapiens, UniProt P05177); experiment: as above
T1 sequence (P05177 1-516): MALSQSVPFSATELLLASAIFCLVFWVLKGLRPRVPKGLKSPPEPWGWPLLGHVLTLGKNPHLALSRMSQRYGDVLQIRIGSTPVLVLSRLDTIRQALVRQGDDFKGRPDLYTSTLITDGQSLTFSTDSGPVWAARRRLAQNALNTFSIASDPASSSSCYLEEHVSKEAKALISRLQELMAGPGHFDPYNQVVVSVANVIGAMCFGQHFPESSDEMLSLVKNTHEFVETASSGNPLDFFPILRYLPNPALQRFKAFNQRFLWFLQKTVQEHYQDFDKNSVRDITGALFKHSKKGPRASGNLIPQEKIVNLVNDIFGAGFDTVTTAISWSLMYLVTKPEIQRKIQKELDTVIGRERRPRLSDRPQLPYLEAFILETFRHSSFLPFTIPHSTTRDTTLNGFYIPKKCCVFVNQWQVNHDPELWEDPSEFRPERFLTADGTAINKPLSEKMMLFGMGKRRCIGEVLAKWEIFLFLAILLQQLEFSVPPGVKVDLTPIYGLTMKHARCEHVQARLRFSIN

Cytochrome P450 2C19 = Cytochrome P450 2C19 (Homo sapiens, UniProt P33261); experiment: as above; conditions: 2C19_S-Meph pIC50, human liver microsomes 0.2 mg/ml; probe S-mephenytoin 30 microM
Sequence of Cytochrome P450 2C19 (P33261 whole entry): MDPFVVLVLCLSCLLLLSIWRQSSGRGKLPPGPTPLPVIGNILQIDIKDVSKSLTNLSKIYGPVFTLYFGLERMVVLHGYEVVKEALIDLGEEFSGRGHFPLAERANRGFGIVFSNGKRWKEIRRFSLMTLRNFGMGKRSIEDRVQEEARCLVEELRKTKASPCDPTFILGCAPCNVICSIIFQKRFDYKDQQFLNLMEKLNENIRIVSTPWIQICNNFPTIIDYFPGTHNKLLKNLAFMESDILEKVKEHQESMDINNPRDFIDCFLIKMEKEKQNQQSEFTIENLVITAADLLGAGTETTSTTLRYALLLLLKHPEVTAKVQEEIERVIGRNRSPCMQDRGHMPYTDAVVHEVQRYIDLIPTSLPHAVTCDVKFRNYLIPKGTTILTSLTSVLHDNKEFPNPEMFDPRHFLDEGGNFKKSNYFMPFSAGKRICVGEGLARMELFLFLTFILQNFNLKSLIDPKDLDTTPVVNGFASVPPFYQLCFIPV

Cytochrome P450 2D6 = Cytochrome P450 2D6 (Homo sapiens, UniProt P10635); experiment: as above; conditions: 2D6_Dextro pIC50, human liver microsomes 0.2 mg/ml; probe dextromethorphan 3 microM
Sequence of Cytochrome P450 2D6 (P10635 whole entry): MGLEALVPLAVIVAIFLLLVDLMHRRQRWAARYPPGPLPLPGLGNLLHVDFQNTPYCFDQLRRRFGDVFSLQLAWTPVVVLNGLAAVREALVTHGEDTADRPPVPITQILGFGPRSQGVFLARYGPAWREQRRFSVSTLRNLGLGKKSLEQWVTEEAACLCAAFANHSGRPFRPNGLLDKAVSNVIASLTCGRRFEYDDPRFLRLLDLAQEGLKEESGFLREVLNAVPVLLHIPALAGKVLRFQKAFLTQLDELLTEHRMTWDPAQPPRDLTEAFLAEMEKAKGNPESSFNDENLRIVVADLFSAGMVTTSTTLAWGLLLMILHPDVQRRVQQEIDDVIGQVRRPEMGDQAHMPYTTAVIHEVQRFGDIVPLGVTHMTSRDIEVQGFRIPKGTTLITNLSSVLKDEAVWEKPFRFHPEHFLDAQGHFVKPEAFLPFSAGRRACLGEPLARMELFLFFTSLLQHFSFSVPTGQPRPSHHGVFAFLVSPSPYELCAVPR

Cytochrome P450 2C8 = target: T2, Cytochrome P450 2C8 (Homo sapiens, UniProt P10632); experiment: as above; format: in vitro ADME; conditions: human liver microsomes 0.2 mg/ml; probe amodiaquine 2 microM; read-out: 2C8_Amod pIC50 (converted)
T2 construct: tissue BD Gentest; host or cells: human liver microsomes
T2 sequence (P10632 1-490): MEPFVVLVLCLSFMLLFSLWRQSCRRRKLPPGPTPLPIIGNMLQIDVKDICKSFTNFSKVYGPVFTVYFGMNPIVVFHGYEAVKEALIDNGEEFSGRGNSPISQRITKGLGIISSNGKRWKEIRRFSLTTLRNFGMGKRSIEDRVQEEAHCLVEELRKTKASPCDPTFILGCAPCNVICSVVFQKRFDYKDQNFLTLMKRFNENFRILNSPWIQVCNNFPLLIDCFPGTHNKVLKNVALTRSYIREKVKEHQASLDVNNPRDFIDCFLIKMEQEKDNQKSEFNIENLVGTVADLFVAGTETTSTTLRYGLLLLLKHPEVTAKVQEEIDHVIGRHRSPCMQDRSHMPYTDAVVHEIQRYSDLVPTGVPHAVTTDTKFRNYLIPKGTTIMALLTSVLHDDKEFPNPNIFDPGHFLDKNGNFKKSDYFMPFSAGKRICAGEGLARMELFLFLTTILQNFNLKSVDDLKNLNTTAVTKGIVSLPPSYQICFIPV

CYP3A4/5 = CYP3A4/5 (Homo sapiens, UniProt P08684); experiment: in vitro; conditions: liver microsomes, pH 7.4, probe midazolam (2 microM)
Sequence of CYP3A4/5 (P08684 2-503): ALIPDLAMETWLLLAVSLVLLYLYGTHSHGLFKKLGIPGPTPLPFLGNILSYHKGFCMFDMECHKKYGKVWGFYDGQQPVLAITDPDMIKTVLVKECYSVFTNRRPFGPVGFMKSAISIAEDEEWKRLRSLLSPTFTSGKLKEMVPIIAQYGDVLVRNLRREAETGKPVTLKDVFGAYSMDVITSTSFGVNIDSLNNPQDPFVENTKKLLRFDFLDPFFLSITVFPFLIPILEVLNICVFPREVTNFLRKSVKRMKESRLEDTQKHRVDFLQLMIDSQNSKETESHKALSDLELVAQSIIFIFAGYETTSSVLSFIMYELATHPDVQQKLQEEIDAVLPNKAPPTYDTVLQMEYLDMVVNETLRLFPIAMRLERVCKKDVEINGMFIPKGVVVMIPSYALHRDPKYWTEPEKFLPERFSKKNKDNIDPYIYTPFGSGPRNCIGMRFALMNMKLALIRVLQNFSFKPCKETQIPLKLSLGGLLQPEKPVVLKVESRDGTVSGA
Protocol: Probe substrates and final assay concentrations with the appropriate internal standard are outlined in Table 6a.
After a 10 min pre-incubation at 37° C., the reaction was started with addition of NADPH at a final concentration of 1.0 mM. […] The samples are centrifuged for 10 min at 4° C. at 4000 rpm and 60 microliters supernatant is diluted with 180 microliters water. Each sample is injected onto a UPLC/MS system for the simultaneous measurement of the probe substrate metabolites and their associated deuterated internal standards.
Percentage inhibition data are plotted against the Log transformed test compound concentration and after curve fitting the IC50-value is determined.

[1] = system: Sporothrix schenkii B62482; experiment: Antifungal activity in vitro (resazurin susceptibility screen), Inf. A; format: cell-based; conditions: Sporothrix, B62482, Sporothrix schenkii B62482; 27 °C, 4 days, resa time 24 hours; highest in-test concentration 64 μM; read-out: Inf. A pIC50 (converted)
In short: (§1)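 Susceptibility was tested on pre-made plates bearing spotted serial compound dilutions (stored at 4 °C in darkness, maximum 2 weeks). Cryopreserved fungal stocks, diluted 1/1000 right before use, supplied 10^3 cfu per well, with drug-free and medium-only wells as controls.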

Microsporum canis B68128 = experiment: Antifungal activity in vitro (resazurin susceptibility screen), Inf. B; format: cell-based; conditions: Microsporum canis, B68128, Microsporum canis B68128; 27 °C, 9 days, resa time 24 hours; read-out: Inf. B pIC50 (converted)
In short: (§2)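 Each well was inoculated with 10^3 cfu of fungus onto dried, pre-spotted compound serial dilutions in RPMI-MOPS medium, with fungal growth read by resazurin. Growth was referenced to drug-free culture (100%) and medium-only (0%) controls on each plate.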

[2] = system: Trichophyton rubrum B68183; experiment: Antifungal activity in vitro (resazurin susceptibility screen), Inf. C; format: cell-based; conditions: Trichophyton rubrum B68183; 27 °C, 7 days, resa time 24 hours; read-out: Inf. C pIC50 (converted)
In short: as §1

[3] = system: Candida parapsilosis B66126; experiment: Antifungal activity in vitro (resazurin susceptibility screen), Inf. D; format: cell-based; conditions: Lodderomyces parapsilosis; Candida parapsilosis B66126; 37 °C, 24 hours, resa time 4 hours; read-out: Inf. D pIC50 (converted)
In short: as §2

[4] = system: Aspergillus fumigatus B42928; experiment: Antifungal activity in vitro (resazurin susceptibility screen), Inf. E; format: cell-based; conditions: Aspergillus fumigatus B42928; 27 °C, 48 hours, resa time 17 hours; read-out: Inf. E pIC50 (converted)
In short: as §1

[5] = system: Cryptococcus neoformans B66663; experiment: Antifungal activity in vitro (resazurin susceptibility screen), Inf. F; format: cell-based; conditions: Cryptococcus neoformans, B66663, Cryptococcus neoformans B66663; 37 °C, 24 hours, resa time 4 hours; read-out: Inf. F pIC50 (converted)
In short: as §1

[6] = system: Trichophyton mentagrophytes B70554; experiment: Antifungal activity in vitro (resazurin susceptibility screen), Inf. G; format: cell-based; conditions: Trichophyton mentagrophytes, B70554, Trichophyton mentagrophytes B70554; 27 °C, 7 days, resa time 24 hours; read-out: Inf. G pIC50 (converted)
In short: as §2

[7] = system: Scedosporium apiospermum IHEM3817; experiment: Antifungal activity in vitro (resazurin susceptibility screen), Inf. H; format: cell-based; conditions: 37 °C, 48 hours, resa time 17 hours, read-out: Inf. H pIC50 (converted)
Protocol: (§3) The standard susceptibility screen was performed in 96-well plates (U-bottom, Greiner Bio-One). […] These serial dilutions (10 n1) were then spotted onto test-plates that could be stored in the dark at 4° C. for a maximum period of 2 weeks. […] The different fungal species/isolates (Table 3a) were cryopreserved and 1/1000 diluted in medium just prior to use. A standard inoculum of 200 μl containing 10^3 colony-forming unit (cfu) was then added to each well. A positive control (100% growth=fungal culture without antifungal) and a negative control (0% growth ═RPMI-MOPS medium) were included on each plate. […] [table]

[8] = system: Scedosporium prolificans IHEM21157; experiment: Antifungal activity in vitro (resazurin susceptibility screen), Inf. I; format: cell-based; conditions: Lomentospora prolificans, 37 °C, 48 hours, resa time 17 hours, read-out: Inf. I pIC50 (converted)
Protocol: as §3

Rhizopus oryzae IHEM5223 = experiment: Antifungal activity in vitro (resazurin susceptibility screen), Inf. J; format: cell-based; conditions: Rhizopus arrhizus, 37 °C, 24 hours, resa time 6 hours, read-out: Inf. J pIC50 (converted)
Protocol: as §3

[9] = system: Rhizomucor miehei IHEM13391; experiment: Antifungal activity in vitro (resazurin susceptibility screen), Inf. K; format: cell-based; conditions: 37 °C, 48 hours, resa time 17 hours, read-out: Inf. K pIC50 (converted)
Protocol: as §3

[10] = system: Mucor circinelloides IHEM21105; experiment: Antifungal activity in vitro (resazurin susceptibility screen), Inf. L; format: cell-based; conditions: 27 °C, 48 hours, resa time 17 hours, read-out: Inf. L pIC50 (converted)
Protocol: as §3

[11] = Liver metabolic stability assay, hLM; format: in vitro ADME, human; conditions: human liver microsomes, 1 mg protein/ml, 5 μM test compound, 15 min, 37 °C
[12] = Liver metabolic stability assay, gpLM; format: in vitro ADME, guinea pig; conditions: guinea pig microsomes, 1 mg protein/ml, 5 μM test compound, 15 min, 37 °C
CYP1A2 = target: T3, CYP1A2 (Homo sapiens, UniProt P05177); experiment: Human liver microsomal cytochrome P450 inhibition assay, Protocol B; format: in vitro ADME; conditions: liver microsomes, pH 7.4, probe resorufin, at 30 μM
T3 sequence (P05177 1-516): T1 sequence (P05177 1-516)
Protocol: (§4) The samples are centrifuged for 10 min at 4° C. at 4000 rpm and the supernatant is analyzed. Analysis for CYP1A2 with resorufin was performed by fluorescence while the CY2D6 inhibition potential was assessed using LC-MS detection.

CYP2D6 = CYP2D6 (Homo sapiens, UniProt P10635); experiment: as above; format: in vitro ADME; conditions: pH 7.4; at 30 μM; solvent condition B (0.30% DMSO+0.68% acetonitrile); human liver microsomes; probe dextromethorphan
Sequence of CYP2D6 (P10635 whole entry): as the sequence (P10635 whole entry) above
Protocol: as §4

Compound: CCc1ccc(C2NCc3c(Cl)cccc3-n3cccc32)cc1 (centres unmarked)
- IC50 at 10 min (CYP2C9): 10 µM
- IC50 (Cytochrome P450 1A2): > 10 µM
- IC50 (Cytochrome P450 2C19): 1 µM
- IC50 (Cytochrome P450 2D6): 3.16 µM
- IC50 (Cytochrome P450 2C8): > 10 µM

Compound: CCc1ccc(C2NCc3ccc(Cl)cc3-n3cccc32)cc1 (centres unmarked)
- IC50 at 10 min (CYP2C9): 10 µM
- IC50 (Cytochrome P450 1A2): > 10 µM
- IC50 (Cytochrome P450 2C19): 0.316 µM
- IC50 (Cytochrome P450 2D6): 3.98 µM
- IC50 (Cytochrome P450 2C8): > 10 µM
- IC50 at 10 min (CYP3A4/5): 6.31 µM

- IC50 [1]: 7.94 µM
- IC50 (Microsporum canis B68128): 2 µM
- IC50 [2]: 0.316 µM
- IC50 [3]: 63.1 µM
- IC50 [4]: 0.501 µM
- IC50 [5]: 1.58 µM
- IC50 [6]: 1 µM
- IC50 [7]: 39.8 µM
- IC50 [8]: 12.6 µM
- IC50 (Rhizopus oryzae IHEM5223): > 63.1 µM
- IC50 [9]: > 63.1 µM
- IC50 [10]: > 63.1 µM
- %-compound metabolised_Met_hLM [11]: 17%
- %-compound metabolised Met_gpLM [12]: 36%
- inhibition at 10 min, 30 µM (CYP1A2; solvent condition A (0.15% DMSO+[…] acetonitrile)): 20 to 25%
- inhibition at 10 min, 30 µM (CYP1A2; solvent condition B (0.30% DMSO+0.68% acetonitrile)): 25 to 35%
- inhibition at 10 min, 30 µM (CYP2D6): 40 to 45%
- melting point: 114.4 to 115.7 °C
Compound: CC(=O)c1ccc(C2=NCc3ccc(Cl)cc3-n3cccc32)cc1 [Compound 18, 1-[4-(9-chloro-6H-pyrrolo[1,2-a][1,4]benzodiazepin-4-yl)phenyl]-ethanone]
